US5260425A, “Anthracycline derivatives having cytostatic activity” (priority 1988, dated 1993)
Values after ≈ are worked out from the molar mass of the structure shown. Where two headings read alike, the source gives them in different places.

Legend:
[1] = tested on: L1210 mouse leukemia cells; assay: Formation of colonies of L1210 leukemia cells in soft agar (cytotoxicity in vitro); format: cell-based; conditions: for IC50: Mus musculus
Procedure: The cytostatic activity of the compounds according to the invention has been tested using L1210 mouse leukemia cells. Employed for this purpose was the formation of colonies of L1210 leukemia cells in agar plates. This method is used to detect the effect of the test substances on the growth behavior of the cells over 1 hour or over several generations. In this connection, with a cell cycle time of 10-12 hours about 14 consecutive generations are observed in the 7 days the test lasts. In this test, the substances having cytostatic activity according to the invention bring about a reduction in the number of colonies to be observed by comparison with an untreated control sample.
Procedure for determining the formation of colonies of L1210 leukemia cells in soft agar
500 leukemia cells per plate were incubated with various concentrations of the test substance at 37° C. for 1 hour. The cells were then washed twice with McCoy5A medium and finally, after addition of 0.3% agar, poured into Petri dishes. Controls were incubated only with fresh medium. In place of the incubation for one hour, in some cases various concentrations and test substances were mixed with the upper agar layer in order in this way to achieve continuous exposure of the cells throughout the incubation time. After the agar had solidified, the plates were incubated in an incubator at 37° C. for 7 days (5% by volume CO2, 95% relative humidity). The number of colonies which had been produced with a diameter of more than 60 μm was then counted. The results have been reported as the number of colonies in treated agar plates as a percentage of the untreated control. The IC50 was determined as a measure of the activity of the substance from the dose-effect plot obtained in this way. The results for the compounds described herein, by comparison with adriamycin, are compiled in Table 1.

[2] = Determination of the indicative toxicity; conditions: mouse, in vivo, ip; 3xip,q3d (three intraperitoneal administrations, 3 days interval); survival day 14
Procedure: To determine the indicative toxicity, NMRI mice receive an intraperitoneal injection of various doses of the test substance dissolved in 0.5 ml of 5% strength glucose solution on day 0. Control groups receive merely 0.5 ml of 5% strength glucose solution. 5 mice are used for each concentration of the test substance. The number of mice surviving on day 14 is determined, and from this the LD5, LD50 and LD95 are determined by the Litchfield-Wilcoxon method. The toxicity (LD50 (mg/kg)) of the compounds described here is summarized in Table 3 by comparison with adriamycin.

L1210 leukemia = assay: In vivo activity on L1210 leukemia of the mouse (antitumor activity T/C); conditions: Mus musculus
Procedure: Ascites fluid is removed from DBA2 mice (female, 18-20 g) under sterile conditions 7 days after inoculation of tumor cells. The ascites is washed three times with PBS (phosphate-buffered saline), counted and adjusted to a cell count of 10^6 in 0.2 ml of PBS.
10^6 cells, suspended in 0.2 ml of PBS, are then injected intraperitoneally into DBF1 mice (female, 18-20 g). 6 animals per group are used for each substance concentration and as controls.
a) The animals are weighed on days 1 and 5 after injection of the test substance. A weight loss of more than 20% on day 5 is regarded as an indicator of a toxic effect of the substance.
b) At the end of the experiment (death of all animals or surviving animals on day 60) the mean survival time of the animals in the particular groups is determined as long as at least 65% of the animals were still alive on day 5 of the experiment. The mean survival time is determined only for animals which die during the course of the experiment. Long-term survivors (LTS) are not included in this calculation and are reported separately.
The antitumor activity (T/C) for the particular substance concentration is determined from the mean survival time (MSTT) in the treated groups and in the control groups (MSTC) as a percentage of the untreated controls in accordance with the following formula: [formula]
The T/C values and the treatment regimen employed in each case are compiled in Table 3, together with the indicative toxicity. T/C values greater than 125% are regarded as an indicator of a significant antitumor activity of the test substance.

[3] = tested on: sensitive and resistant L1210 leukemia cells; assay: Proliferation test (MTT reduction), cross-resistance to doxorubicin/adriamycin in vitro; format: cell-based, mouse
Procedure: L1210, A 549 or HT 29 in the exponential phase of growth are incubated in a cell density of 5×10^3 cells/ml in RPMI 1640 in a 96-well microtiter plate with various concentrations of the test substance at 37° C., 5% CO2 and 95% relative humidity for 72 h. Control experiments receive merely growth medium in place of the test substance. Quadruplicate determinations are set up for each test substance and for the control. After incubation for 65 h, 50 μl of an MTT solution (2.5 mg/ml; MTT=3-(4,5-dimethylthiazol-2-yl)-2,5-diphenyltetrazoliumbromide) in phosphate-buffered saline) are added. MTT is reduced to a dark red insoluble formazan dyestuff in the presence of live cells. This reaction is complete after 7 h (L1210 cells) or after 24 h (A 549, HT 29 cells), and the supernatant medium is carefully removed by aspiration. The insoluble dyestuff is dissolved by addition of 100 μl of DMSO (dimethyl sulfoxide) and the extinction of the resulting solution at a wavelength of 492 nm is then measured for each well in a multiscan 340 CC photometer from Flow.
The ratio of the extinctions for treated and untreated cells provides a dose-effect plot from which the concentration which just kills 50% of the cells (IC50) can be read off. The coefficient of variation for repeat investigations is less than 15%.
The cross-resistance between the particular test compound and doxorubicin as standard compound is determined with the aid of the MTT test (see above for method) on sensitive and resistant L1210 leukemia cells.
The resistant cell line was established by incubation of a sensitive subline with the reference compound in concentrations which increased stepwise.
The IC50 of the test compound on the resistant subline related to the IC50 of the sensitive subline provides both the degree of resistance for the test Compound (DR(T)) and that for the reference compound (DR(R)) in accordance with the formula [formula]
In addition, the degree of cross-resistance (DCR) for the test compound is calculated in accordance with the formula [formula]
In the case where the loss of effect of the test compound on the resistant line in relation to the sensitive line is greater than that of the reference compound it is possible for the degree of cross-resistance to be above 100%.

[4] = L1210, 168 h, read-out: IC50, continuous incubation, continuous incubation, 7 days, L1210 colonies in agar
[5] = L1210, read-out: IC50, 1 h incubation, 1 h incubation, then 7 days, L1210 colonies in agar
[6] = 168 h, continuous incubation, 7 days, L1210 colonies in agar, read-out: IC50, continuous incubation
[7] = 1 h incubation, then 7 days, L1210 colonies in agar, read-out: IC50, 1 h incubation
[8] = 1 h incubation, then 7 days, L1210 colonies in agar
[9] = continuous incubation, 7 days, L1210 colonies in agar

SMILES	LD50 at 336 h [2] [mg/kg]	IC50 [1, 6] [µg/mL]	IC50 [1, 7] [µg/mL]	other results
C=CCN(C)[C@H]1C[C@H](O[C@H]2C[C@](O)(C(C)=O)Cc3c(O)c4c(c(O)c32)C(=O)c2c(OC)cccc2C4=O)O[C@@H](C)[C@H]1O [Compound 15, 7-O-(3'-N-Allyl-3'-N-methyl-alpha-L-daunosaminyl)-daunomycinone]	–	–	–	IC50 [1, 4]: 0.008 µg/mL (≈ 0.0138 µM); IC50 [1, 5]: > 1 µg/mL
CCOC(=O)CN(C)[C@H]1C[C@H](O[C@H]2C[C@](O)(CC)[C@H](O)c3c(O)c4c(c(O)c32)C(=O)c2c(O)cccc2C4=O)O[C@@H](C)[C@H]1O [Compound 10, 7-O-(3'-N-(Ethoxycarbonylmethyl)-3'-N-methyl-alpha-L-daunosaminyl)-β-rhodomycinone]	10 to 25	0.1 (≈ 0.162 µM)	0.06 (≈ 0.0975 µM)	response vs control in vivo at 12.7 mg/kg (L1210 leukemia; L1210, iv, 3xiv,q3d, dose 12.7 mg/kg, % of the control): 132%
CC[C@@]1(O)C[C@H](O[C@H]2C[C@H](N(C)Cc3ccccn3)[C@H](O)[C@H](C)O2)c2c(O)c3c(c(O)c2[C@H]1O)C(=O)c1cccc(O)c1C3=O [Compound 5, 7-O-(3'-N-Methyl-3'-N-(2-picolyl)-alpha-L-daunosaminyl)-β-rhodomycinone]	–	0.038 (≈ 0.0612 µM)	0.24 (≈ 0.387 µM)	–
CC[C@@]1(O)C[C@H](O[C@H]2C[C@H](N(C)Cc3cccs3)[C@H](O)[C@H](C)O2)c2c(O)c3c(c(O)c2[C@H]1O)C(=O)c1cccc(O)c1C3=O [Compound 13, 7-O-(3'-N-Methyl-3'-N-(2-thenyl)-alpha-L-daunosaminyl)-β-rhodomycinone]	–	0.034 (≈ 0.0543 µM)	0.38 (≈ 0.607 µM)	–
C=CCN(C)[C@H]1C[C@H](O[C@H]2C[C@](O)(CC)[C@H](O)c3c(O)c4c(c(O)c32)C(=O)c2c(OC)cccc2C4=O)O[C@@H](C)[C@H]1O [Compound 17, 7-O-(3'-N-Allyl-3'-N-methyl-alpha-L-daunosaminyl)-4-O-methyl-β-rhodomycinone]	–	0.036 (≈ 0.0617 µM)	> 1	–
CC[C@@]1(O)C[C@H](O[C@H]2C[C@H](N(C)Cc3ccncc3)[C@H](O)[C@H](C)O2)c2c(O)c3c(c(O)c2[C@H]1O)C(=O)c1cccc(O)c1C3=O [Compound 4, 7-O-(3'-N-Methyl-3'-N-(4-picolyl)-alpha-L-daunosaminyl)-β-rhodomycinone]	2.5 to 5	0.023 (≈ 0.0371 µM)	0.1 (≈ 0.161 µM)	Cross-resistance to doxorubicin (in words) ([3]; L1210, MTT, in vitro): not cross-resistant to doxorubicin; Degree of resistance of the cell ([3]; MTT, 3d, IC50 resistant subline related to IC50 sensitive subline): 1.6; Cross-resistance to adriamycin (degree of cross-resistance) ([3]; MTT, 3d, adriamycin = 100.0): 0.2%
C=CCN(C)[C@H]1C[C@H](O[C@H]2C[C@](O)(CC)[C@H](O)c3c(O)c4c(c(O)c32)C(=O)c2c(O)ccc(O)c2C4=O)O[C@@H](C)[C@H]1O [Compound 9, 7-O-(3'-N-Allyl-3'-N-methyl-alpha-L-daunosaminyl)-β-isorhodomycinone]	> 6	0.008 (≈ 0.0137 µM)	0.5 (≈ 0.854 µM)	–
CC[C@@]1(O)C[C@H](O[C@H]2C[C@H](N(C)CC3CO3)[C@H](O)[C@H](C)O2)c2c(O)c3c(c(O)c2[C@H]1O)C(=O)c1cccc(O)c1C3=O (single isomer, unassigned) [Compound 8b, 7-O-(3'-N-Glycidyl-3'-N-methyl-alpha-L-daunosaminyl)-β-rhodomycinone]	–	–	–	IC50, 1 h incubation [1, 8]: 0.01 µg/mL (≈ 0.0171 µM); IC50, continuous incubation [1, 9]: 0.003 µg/mL (≈ 0.00512 µM)
CC[C@@]1(O)C[C@H](O[C@H]2C[C@H](N(C)CC(C)=O)[C@H](O)[C@H](C)O2)c2c(O)c3c(c(O)c2[C@H]1O)C(=O)c1cccc(O)c1C3=O [Compound 18, 7-O-(3'-N-Acetonyl-3'-N-methyl-alpha-L-daunosaminyl)-β-rhodomycinone]	–	0.018 (≈ 0.0307 µM)	0.073 (≈ 0.125 µM)	–
CC[C@@]1(O)C[C@H](O[C@H]2C[C@H](N(C)CC3CO3)[C@H](O)[C@H](C)O2)c2c(O)c3c(c(O)c2[C@H]1O)C(=O)c1cccc(O)c1C3=O (stereo partly drawn) [Compound 8m, 7-O-(3'-N-Glycidyl-3'-N-methyl-alpha-L-daunosaminyl)-β-rhodomycinone]	–	–	–	response vs control in vivo at 0.47 mg/kg (L1210 leukemia; L1210, ip, read-out: T/C, L1210-leukemia in vivo): 114%; IC50 [1, 4]: 0.002 µg/mL (≈ 0.00342 µM); IC50 [1, 5]: 0.0072 µg/mL (≈ 0.0123 µM)
CC[C@@]1(O)C[C@H](O[C@H]2C[C@H](N(C)CC3CO3)[C@H](O)[C@H](C)O2)c2c(O)c3c(c(O)c2[C@H]1O)C(=O)c1cccc(O)c1C3=O (single isomer, unassigned) [Compound 8a, 7-O-(3'-N-Glycidyl-3'-N-methyl-alpha-L-daunosaminyl)-β-rhodomycinone]	–	–	–	IC50, 1 h incubation [1, 8]: 0.0034 µg/mL (≈ 0.00581 µM); IC50, continuous incubation [1, 9]: 0.001 µg/mL (≈ 0.00171 µM)
CC[C@@]1(O)C[C@H](O[C@H]2C[C@H](N(C)CC(N)=O)[C@H](O)[C@H](C)O2)c2c(O)c3c(c(O)c2[C@H]1O)C(=O)c1cccc(O)c1C3=O [Compound 7, 7-O-(3'-N-Acetamido-3'-N-methyl-alpha-L-daunosaminyl)-β-rhodomycinone]	2 to 5	0.084 (≈ 0.143 µM)	0.24 (≈ 0.409 µM)	response vs control in vivo at 11.2 mg/kg (L1210 leukemia; L1210, iv, 3xiv,q3d, dose 11.2 mg/kg, % of the control): 142%
CC[C@@]1(O)C[C@H](O[C@H]2C[C@H](N(C)CCO)[C@H](O)[C@H](C)O2)c2c(O)c3c(c(O)c2[C@H]1O)C(=O)c1cccc(O)c1C3=O [Compound 3, -O-(3'-N-Hydroxyethyl-3'-N-methyl-alpha-L-daunosaminyl)-β-rhodomycinone]	0.2 to 1	0.02 (≈ 0.0349 µM)	0.044 (≈ 0.0767 µM)	response vs control in vivo at 1.13 mg/kg (L1210 leukemia; L1210, iv, 3xiv,q3d, dose 1.13 mg/kg, % of the control): 108%
